Measured values published in paper PMC5267425, “Identification of small molecule modulators of HIV-1 Tat and Rev protein accumulation” (Retrovirology, 2017).
“And” between values parts separate entries of the source, which are not always exact repeats. Equal values may be shown once.

System: alternative splicing of host transcripts in HeLa rtTA HIV∆Mls cells
Assay: RT-PCR of host alternative splicing events (PSI), capillary electrophoresis
Type: cell-based
Parameters: PSI ZNF827_1 / PSI RAN_1 / PSI SEC24B_1 / PSI SMN2_1 / PSI TRIM37_1 / PSI RPS24_1 / PSI PDCL_1 / PSI SMN2_2 / PSI SETD5_1 / PSI RAI14_1 / PSI TPM1_1 / PSI SPAG9_1 / PSI POLDIP3_1 / PSI SRPK2_1 / PSI POMT1_1: concentration or dose not given beside the values
Description: To assess the effect of compounds on expression/alternative splicing of cellular RNA, two approaches were used. For both, total RNA was prepared from DMSO or compound-treated cells. In the first assay, samples were assayed by medium throughput RT-PCR to determine the inclusion levels of alternatively spliced exons and splice sites located in 73 selected events. 73 primer sets containing a fluorescently (5-FAM) labeled primer for each, were used in RT-PCR. PCR products generated were denatured in formamide and quantified using ABI Prism capillary sequencer (Life Technologies). The fragment analysis was performed on the PeakScanner software (Life Technologies) in batch mode and automated using custom scripts written in Python. The inclusion level of each exon was calculated as the amount of transcripts carrying the alternative exon relative to the total amount of all transcripts detected in the PCR reaction and results are summarized for compound-treatment in comparison to DMSO treatment. In the second assay, extracted RNA was processed using the Illumina TruSeq RNA Sample Preparation Kit (Illumina) according to the manufacturer’s instructions. The cDNA library generated was validated (passed quality control on a Bioanalyzer 1000 DNA chip (Agilent)), normalized and pooled for cluster generation. cDNA libraries were sequenced on the Illumina HiSeq 2500 (paired-end, 125 bp) with version 4 chemistry following manufacturer’s protocols. The full human genome and transcriptomic sequences were downloaded from the UCSC Genome Browser (genome.ucsc.edu) database and Ensembl (www.ensembl.org), respectively, as described by Irimia et al.. Exon annotations and genomic coordinates for alternative splicing (AS) analysis were derived from tables downloaded from the UCSC Genome Browser database. To determine gene expression (GE) or alternative splicing (AS) changes in an unbiased way, the effective number of unique mappable positions in each transcript (i.e. the effective length) was determined by aligning sequences with unique transcriptomic alignment to the human genome using Bowtie. Reads with one unique genomic alignment were then aligned against the canonical transcriptome and, for each transcript, the number of reads with one unique transcriptomic alignment were counted. The expression level of genes was quantified as corrected ‘reads per kilobase of exon model per million mapped reads’ (cRPKM), a widely used metric to estimate gene expression levels. The expression cutoff was 0.5 cRPKM, corresponding to the transcript of the gene being present if there were ≥10 reads that mapped uniquely to a single genomic locus. Approximately 19,847 Ensembl annotated protein-coding genes were compared to create a gene list of differentially expressed genes. Genes were considered differentially expressed if fold changes in cRPKM was ≥2 in compound-treated versus DMSO-treated samples.

COc1ccc(C=NNC(=O)c2ccccc2O)cc1O [Compound 892, 2-hydroxy-N′-(3-hydroxy-4-methoxybenzylidene)benzohydrazide]
DPSI EIF4A2_1 (chr7:187988792-187988899, mean PSI 5193892 minus DMSO, n=3, P Value 0.014): 13.67%
PSI EIF4A2_1 (chr7:187988899-187988904, HeLa rtTA-HIV-DMls cells, replicates 25, 26, 27): 22.00 and 26.00 and 31.00
DPSI EIF4A2_1 (chr7:187988899-187988904, mean PSI 5193892 minus DMSO, n=3, P Value 0.035): 8.33%
PSI PDCL_1 (chr9:124628716-124628892, HeLa rtTA-HIV-DMls cells, replicates 25, 26, 27): 90.00 and 91.00 and 93.00
DPSI PDCL_1 (chr9:124628716-124628892, mean PSI 5193892 minus DMSO, n=3, P Value 0.152): 1.67%
PSI GM130_1 (chr9:130069293-130069374, HeLa rtTA-HIV-DMls cells, replicates 25, 26, 27): 23.00 and 18.00 and 15.00
DPSI GM130_1 (chr9:130069293-130069374, mean PSI 5193892 minus DMSO, n=3, P Value 0.007): -14.33%
PSI POMT1_1 (chr9:133368281-133368521, HeLa rtTA-HIV-DMls cells, replicates 25, 26, 27): 50.00 and 37.00 and 28.00
DPSI POMT1_1 (chr9:133368281-133368521, mean PSI 5193892 minus DMSO, n=3, P Value 0.626): -4.00%
PSI POMT1_1 (chr9:133371321-133371428, HeLa rtTA-HIV-DMls cells, replicates 25, 26, 27): 95.00 and 94.00 and 63.00
DPSI POMT1_1 (chr9:133371321-133371428, mean PSI 5193892 minus DMSO, n=3, P Value 0.627): -5.67%
PSI RPS24_1 (chr10:79467729-79467746, HeLa rtTA-HIV-DMls cells, replicates 25, 26, 27): 8.00 and 13.00 and 12.00
DPSI RPS24_1 (chr10:79467729-79467746, mean PSI 5193892 minus DMSO, n=3, P Value 0.079): 3.67%
PSI ADD3_1 (chr10:111882053-111882148, HeLa rtTA-HIV-DMls cells, replicates 25, 26, 27): 42.00 and 60.00 and 62.00
DPSI ADD3_1 (chr10:111882053-111882148, mean PSI 5193892 minus DMSO, n=3, P Value 0.701): 3.33%
PSI CTNND1_1 (chr11:57318058-57318129, HeLa rtTA-HIV-DMls cells, replicates 25, 26, 27): 82.00 and 76.00 and 100.00
PSI APLP2_1 (chr11:129498717-129498884, HeLa rtTA-HIV-DMls cells, replicates 25, 26, 27): 15.00 and 18.00 and 19.00
DPSI APLP2_1 (chr11:129498717-129498884, mean PSI 5193892 minus DMSO, n=3, P Value 0.009): -6.00%
PSI ERC1_1 (chr12:1091641-1091725, HeLa rtTA-HIV-DMls cells, replicates 25, 26, 27): 36.00 and 55.00 and 52.00
PSI FGFR1OP2_1 (chr12:27004715-27004828, HeLa rtTA-HIV-DMls cells, replicates 25, 26, 27): 22.00 and 15.00 (2×)
DPSI FGFR1OP2_1 (chr12:27004715-27004828, mean PSI 5193892 minus DMSO, n=3, P Value 0.030): -11.67%
PSI DNM1L_1 (chr12:32782066-32782143, HeLa rtTA-HIV-DMls cells, replicates 25, 26, 27): 24.00 and 37.00 and 39.00
PSI DNM1L_1 (chr12:32782465-32782497, HeLa rtTA-HIV-DMls cells, replicates 25, 26, 27): 38.00 and 52.00 and 53.00
DPSI DNM1L_1 (chr12:32782465-32782497, mean PSI 5193892 minus DMSO, n=3, P Value 0.447): -5.67%
PSI NAP1L1_1 (chr12:74747418-74747520, HeLa rtTA-HIV-DMls cells, replicates 25, 26, 27): 76.00 and 78.00 and 83.00
DPSI NAP1L1_1 (chr12:74747418-74747520, mean PSI 5193892 minus DMSO, n=3, P Value 0.123): -5.67%
PSI NAP1L1_1 (chr12:74748956-74749041, HeLa rtTA-HIV-DMls cells, replicates 25, 26, 27): 76.00 and 75.00 and 79.00
DPSI NAP1L1_1 (chr12:74748956-74749041, mean PSI 5193892 minus DMSO, n=3, P Value 0.018): -7.00%
PSI MVK_1 (chr12:108501990-108502134, HeLa rtTA-HIV-DMls cells, replicates 25, 26, 27): 78.00 and 100.00 (2×)
DPSI MVK_1 (chr12:108501990-108502134, mean PSI 5193892 minus DMSO, n=3, P Value 0.179): 16.00%
PSI MVK_1 (chr12:108503583-108503738, HeLa rtTA-HIV-DMls cells, replicates 25, 26, 27): 64.00 and 74.00 and 45.00
DPSI MVK_1 (chr12:108503583-108503738, mean PSI 5193892 minus DMSO, n=3, P Value 0.477): 8.33%
PSI RAN_1 (chr12:129923082-129923127, HeLa rtTA-HIV-DMls cells, replicates 25, 26, 27): 93.00 (2×) and 94.00
DPSI RAN_1 (chr12:129923082-129923127, mean PSI 5193892 minus DMSO, n=3, P Value 0.018): -4.67%
PSI MBNL2_1 (chr13:96807051-96807104, HeLa rtTA-HIV-DMls cells, replicates 25, 26, 27): 11.00 and 30.00 and 29.00
DPSI MBNL2_1 (chr13:96807051-96807104, mean PSI 5193892 minus DMSO, n=3, P Value 0.187): 10.33%
